Patent US20260217656A1, “Compounds Affecting KRAS” (UNIVERSITAT DE BARCELONA, priority 2022, published 2026)
pKd: −log10 of the molar value.

What was measured:
[1] = molecular target: T1, HA-KRAS-G12V interaction with BRAF, C-RAF/P-C-RAF, ARAF (Homo sapiens, UniProt P01116, G12V); experiment: Co-immunoprecipitation of HA-KRASG12V with RAF family members; assay type: cell-based; details: 10 min treatment, 100 μM
T1 construct: expressed in transfected cells; host or cells: DLD-1 KO (KRAS WT/-) clone DWT7 cells stably expressing HA-KRAS G12V
Method: DLD-1 KO cells stably expressing HA-KRAS G12V were serum starved for the next 24 hours before treatment with the compounds for the times indicated. Next, an IP with anti-HA antibody crosslinked to agarose beads (clone HA-7, Sigma-Aldrich A20956) was performed as previously described (Cabot et al, Oncogene 2021).
We assessed the possibility that P14B favors RAS-effector binding and consequently increases downstream RAS signaling. To this end, co-immunoprecipitation experiments were carried out to analyze the interaction of KRAS with different RAF family members upon P14B treatment. The interaction was analyzed after 10 min of P14B treatment since P—C-RAF and P-MEK were observed after 15 min (FIG. 3C). DLD-1 cells stably expressing HA-KRAS-G12V were serum-starved and then treated for 10 min with either EGF or P14B.

[2] = tested on: ERK and AKT in hTERT-RPE cells; experiment: Western blot of AKT and ERK activation in serum-starved hTERT-RPE cells; assay type: cell-based, human; details: 100 μM
Text: DLD-1 (KRASWT/G13D) (clone V15, #HD PAR-086) colorectal adenocarcinoma cell line and DLD-1 knockout of mutant KRAS allele, DLD-1 KO (KRASWT/−) (clone DWT7, #HD105-002), were obtained from Horizon Discovery Ltd. (Cambridge, UK). hTERT-RPE (KRASWT/WT) immortalized retinal pigment epithelial human cell line was obtained from the […] (ATCC). DLD-1 KO cells stably expressing HA-KRAS G12V were previously generated in our laboratory (Cabot et al., 2021). All cells were grown in DMEM-HAM s F12 (1:1) supplemented with 10% foetal bovine serum (Biological Industries, Israel), penicillin, streptomycin, and nonessential amino acids. […]
For analysis of RAS signalling, cells were lysed in a buffer containing 67 mM Tris-HCl pH 6.8 and 2% SDS and then the samples were heated at 97° C. for 15 minutes. Protein concentration of the lysates was assessed using the Lowry method. […]
Comparison of Ras signaling between DLD-1, DLD-1-KO and hTERT-RPE cells treated with P14B since important differences were observed between the viability of cells treated with P14B depending on their expression or lack of expression of oncogenic KRAS, we further studied whether these discrepancies were reflected also in KRAS downstream signaling. Serum-starved cells (0.1% FCS) were treated with P14B (100 μM) and activation of AKT and ERK was evaluated by WB. […]

[3] = molecular target: T2, GST-KRAS (1-166), GTP loaded (Homo sapiens, UniProt P01116, G12V); experiment: Surface plasmon resonance analysis; assay type: binding; details: GTP-loaded GST-KRAS (aminoacids 1 to 166) immobilized; read-out: affinity constant (KD)
T2 construct: GST-KRAS (1-166) and GST were covalently immobilized; made in house; host or cells: Escherichia coli BCI21 (so in the source)
Method: Surface Plasmon Resonance Analysis was performed by using BIAcore T200 equipment. GST-KRAS (1-166) and GST were covalently immobilized on two of the channels of CM5 Series S Chip following manufacturers instruction. KRAS was loaded with GTP by injecting 1 mM of GTP 10 μl/min for 30 min in exchange buffer (20 mM Tris-HCl pH 7.5; 50 mM NaCl, 5% glycerol, 0.1% Triton X-100, 1 mM DTT) with 10 mM EDTA at 30° C. and loading was blocked by injecting exchange buffer with 15 mM MgCl2 at 10 μl/min for 5 min. P14B was injected at 12.5 μM, 25 μM, 38.5 μM, 50 μM, 75 μM, 100 μM and 150 μM in running buffer (150 mM NaCl, 50 mM Tris-HCl pH7.5, 2 mM MgCl2, 0.1% Triton and 5% DMSO […] Dissociation was allowed for 10 min in the same buffer. All runs were done by duplicate. Nonspecific binding was subtracted by using two linked channels (GST-KRAS minus GST). Diverse solutions (from 3% to 8%) with DMSO were also prepared to analyse its effect in the RUs, and a solvent correction was performed to reduce the error associated with the injection of the sample. […]
To confirm the direct interaction between KRAS and P14B, surface plasmon resonance analysis was performed. […] Given that P14B is able to bind to oncogenic KRAS (FIG. 4) most likely via the same surface that KRAS uses to interact with CaM, we analyzed the possibility that P14B can displace CaM from oncogenic KRAS. […]

COc1ccc(C(c2c(C)n[nH]c2O)c2c(C)n[nH]c2O)cc1Oc1ccc([N+](=O)[O-])cc1 [Example P14B]
KRAS-ARAF binding [1]: No differences | P-C-RAF co-immunoprecipitated with KRAS ([1]; serum-starved cells): increased the levels of P—C-RAF co-immunoprecipitated with KRAS | KRAS-BRAF interaction ([1]; with respect to non-treated cells): increase in the KRAS-BRAF interaction | AKT and ERK phosphorylation [2]: no significant increase | pKd [3]: 4.48
